The CheMixHub viscosity set

Assay: xn = mol fraction of the nth substance listed

CC(=O)CC(C)C + CCCCCCCO
viscosity [mPa·s], 100 kPa
Details	x1 = 0.0823	x1 = 0.1682	x1 = 0.2346	x1 = 0.3569	x1 = 0.4379	x1 = 0.5614	x1 = 0.6493	x1 = 0.7489	x1 = 0.8505	x1 = 0.9471
293.15 K	5.46	4.21	3.56	2.62	2.19	1.66	1.37	1.1	0.86	0.68
303.15 K	4.09	3.24	2.78	2.08	1.76	1.35	1.13	0.91	0.72	0.59
313.15 K	3.09	2.53	2.2	1.71	1.45	1.14	0.96	0.79	0.63	0.52
323.15 K	2.37	1.98	1.76	1.4	1.22	0.98	0.83	0.68	0.56	0.47

O=C1CCCCC1 + CCCCCCCO
298.15 K, 101 kPa
Details	viscosity [mPa·s]
x2 = 0.1013	1.965
x2 = 0.1998	2.034
x2 = 0.3029	2.16
x2 = 0.4029	2.351
x2 = 0.4994	2.584
x2 = 0.5977	2.914
x2 = 0.6971	3.335
x2 = 0.8008	3.921
x2 = 0.8949	4.663

CC(=O)CC(C)C + CCCCCCO
viscosity [mPa·s], 100 kPa
Details	x1 = 0.0851	x1 = 0.1723	x1 = 0.2541	x1 = 0.3619	x1 = 0.4246	x1 = 0.5566	x1 = 0.6612	x1 = 0.7441	x1 = 0.8559	x1 = 0.9468
293.15 K	3.74	2.71	2	1.37	1.12	0.78	0.65	0.6	0.56	0.56
303.15 K	2.94	2.14	1.62	1.13	0.93	0.66	0.53	0.49	0.48	0.49
313.15 K	2.32	1.79	1.38	0.96	0.79	0.54	0.43	0.41	0.41	0.43
323.15 K	1.88	1.48	1.15	0.8	0.66	0.45	0.35	0.33	0.34	0.37

O=C1CCCCC1 + CCCCCCO
303.15 K, 101 kPa
Details	viscosity [mPa·s]
x1 = 0.1001	3.014
x1 = 0.2599	2.391
x1 = 0.4199	2.008
x1 = 0.5798	1.861
x1 = 0.7404	1.738

OCCOc1ccccc1 + CCCCCCO
viscosity [mPa·s], 101 kPa
Details	x2 = 0.1	x2 = 0.201	x2 = 0.301	x2 = 0.401	x2 = 0.501	x2 = 0.601	x2 = 0.701	x2 = 0.801	x2 = 0.9
303.15 K	10.95	9.244	8.099	7.25	6.508	5.696	4.981	4.335	3.978
313.15 K	7.906	7.005	6.239	5.548	4.764	4.151	3.605	3.222	2.981
323.15 K	5.285	4.821	4.389	3.866	3.518	3.128	2.716	2.358	2.148
